Converted amounts (≈) assume the structure as drawn.

The target of one data set is T1, human mGluR5a receptors (Homo sapiens, UniProt P41594).
T1 construct: expressed in transfected cells; host or cells: L(tk-) cells (mouse fibroblast line)
The data set can be described thus: Inhibition of glutamate-induced elevation of intracellular calcium concentration in L(tk-) cells expressing human mGluR5a receptors. It is filed as cell-based. The conditions noted are these: agonist glutamate. The text has this:
This can be determined in vitro, for example, at recombinant human mGluR5, using different procedures like, for example, measurement of the inhibition of the agonist induced elevation of intracellular Ca^2+ concentration in accordance with L. P. Daggett et al., Neuropharm. Vol. 34, pages 871-886 (1995), P. J. Flor et al., J. Neurochem. Vol. 67, pages 58-63 (1996) or by determination to what extent the agonist induced elevation of the inositol phosphate turnover is inhibited as described by T. Knoepfel et al., Eur. J. Pharmacol. Vol. 288, pages 389-392 (1994), L. P. Daggett et al., Neuropharm. Vol. 67, pages 58-63 (1996) and references cited therein. Isolation and expression of human mGluR subtypes are described in U.S. Pat. No. 5,521,297.
Activity of compounds of the present invention was examined by determination to what extent the glutamate-induced elevation of the intracellular calcium concentration in L(tk-) cells expressing human mGluR5a receptors (see L. P. Daggett et al., Neuropharm. Vol. 34, pages 871-886, 1995) is inhibited by utilizing methods as described e.g. by L. P. Daggett et al., Neuropharm. Vol. 34, pages 871-886 (1995) and P. J. Flor et al., J. Neurochem. Vol. 67, pages 58-63 (1996).
The table below represents IC50 values of the inhibition of the glutamate-induced elevation of the intracellular calcium concentration.
In general terms: Calcium assays in cells follow changes in intracellular calcium, usually with a dye or a luminescent sensor.

The nature of data set [1]: Solubility in Cl-free phosphate buffer (0.067 M), pH 6.8. It is filed as physicochemical. Particulars: pH 6.8, aqueous buffer. The protocol:
Solubility of compounds of the invention was determined in the following buffer: Cl-free phosphate buffer (0.067 M) is made from KH2PO4 solution and titrated to pH 6.8 with NaOH. The table below represents solubility values of compounds of the invention in the above buffer.

T1 sequence (P41594 21-1180 isoform P41594-2 limits assumed): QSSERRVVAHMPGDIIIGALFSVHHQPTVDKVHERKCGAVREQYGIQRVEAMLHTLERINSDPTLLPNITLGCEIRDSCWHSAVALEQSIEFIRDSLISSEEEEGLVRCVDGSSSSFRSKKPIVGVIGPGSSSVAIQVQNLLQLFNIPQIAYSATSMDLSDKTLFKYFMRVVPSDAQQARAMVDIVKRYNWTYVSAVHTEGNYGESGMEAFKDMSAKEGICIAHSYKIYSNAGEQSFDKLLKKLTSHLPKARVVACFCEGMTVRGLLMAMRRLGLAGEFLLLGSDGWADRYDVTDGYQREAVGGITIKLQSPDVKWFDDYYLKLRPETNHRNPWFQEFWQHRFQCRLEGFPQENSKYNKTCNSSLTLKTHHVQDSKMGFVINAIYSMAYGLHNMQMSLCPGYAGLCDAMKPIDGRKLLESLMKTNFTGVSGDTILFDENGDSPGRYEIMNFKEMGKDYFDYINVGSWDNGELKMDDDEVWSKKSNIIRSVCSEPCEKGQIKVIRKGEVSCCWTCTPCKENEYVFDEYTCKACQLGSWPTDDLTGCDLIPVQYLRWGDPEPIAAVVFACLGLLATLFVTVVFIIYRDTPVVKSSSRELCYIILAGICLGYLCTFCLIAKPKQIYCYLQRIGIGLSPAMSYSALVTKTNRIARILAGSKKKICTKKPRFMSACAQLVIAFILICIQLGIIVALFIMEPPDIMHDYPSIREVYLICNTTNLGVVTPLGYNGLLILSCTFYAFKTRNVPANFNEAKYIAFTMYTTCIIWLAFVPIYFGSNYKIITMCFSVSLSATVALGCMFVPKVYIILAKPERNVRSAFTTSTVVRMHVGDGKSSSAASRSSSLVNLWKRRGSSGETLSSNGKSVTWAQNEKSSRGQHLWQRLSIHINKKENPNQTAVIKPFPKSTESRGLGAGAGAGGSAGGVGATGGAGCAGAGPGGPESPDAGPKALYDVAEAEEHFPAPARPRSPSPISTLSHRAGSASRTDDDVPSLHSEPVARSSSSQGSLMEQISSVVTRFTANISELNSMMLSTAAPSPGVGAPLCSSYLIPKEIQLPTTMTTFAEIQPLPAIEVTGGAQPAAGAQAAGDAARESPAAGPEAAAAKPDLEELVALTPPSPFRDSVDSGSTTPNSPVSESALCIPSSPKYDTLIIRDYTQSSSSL

On to `COC(=O)N1CC[C@@H]2[C@H]1CCC[C@@]2(O)C#Cc1cccc(Cl)c1` [Example 1, (3aR,4S,7aR)-methyl 4-((3-chlorophenyl)ethynyl)-4-hydroxyoctahydro-1H-indole-1-carboxylate], for which the IC50 at human mGluR5a receptors amounted to 16 nM. In addition, in data set [1], the solubility turned out to be 103 µg/mL (≈ 309 µM).
As to `COC(=O)N1CC[C@@H]2[C@H]1CCC[C@@]2(O)C#Cc1cncc(C)c1` [Example 2, (3aR,4S,7aR)-methyl 4-hydroxy-4-((5-methylpyridin-3-yl)ethynyl)octahydro-1H-indole-1-carboxylate], the IC50 on human mGluR5a receptors was determined as 1100 nM. Also, the solubility in data set [1] is > 300 µg/mL.
As to `COC(=O)N1CC[C@@H]2[C@H]1CCC[C@@]2(O)C#Cc1ccnc(C)c1` [Example 3, (3aR,4S,7aR)-methyl 4-hydroxy-4-((2-methylpyridin-4-yl)ethynyl)octahydro-1H-indole-1-carboxylate], the half-maximal inhibitory concentration (IC50) at human mGluR5a receptors worked out at 530 nM. Further, the solubility in data set [1] was > 300 µg/mL.
As for `COC(=O)N1CC[C@@H]2[C@H]1CCC[C@@]2(O)C#Cc1cccc(C)n1` [Example 4, (3aR,4S,7aR)-methyl 4-hydroxy-4-((6-methylpyridin-2-yl)ethynyl)octahydro-1H-indole-1-carboxylate], at human mGluR5a receptors, the 50% inhibitory concentration (IC50) came to 1430 nM.
Regarding `COC(=O)N1CC[C@@H]2[C@H]1CCC[C@@]2(O)C#Cc1ccnc(Cl)c1` [Example 5, (3aR,4S,7aR)-methyl 4-((2-chloropyridin-4-yl)ethynyl)-4-hydroxyoctahydro-1H-indole-1-carboxylate], the half-inhibitory concentration (IC50) at human mGluR5a receptors stood at 146 nM. In addition, the solubility in data set [1] stood at 175 µg/mL (≈ 523 µM).
As to `COC(=O)N1CC[C@@H]2[C@H]1CCC[C@@]2(O)C#Cc1cc(C)ccn1` [Example 6, (3aR,4S,7aR)-methyl 4-hydroxy-4-((4-methylpyridin-2-yl)ethynyl)octahydro-1H-indole-1-carboxylate], the IC50 on human mGluR5a receptors was found to be 740 nM. In addition, the concentration in solution in data set [1] (solubility) came to 153 µg/mL (≈ 487 µM).
`COC(=O)N1CC[C@@H]2[C@H]1CCC[C@@]2(O)C#Cc1csc(C)n1` [Example 7, (3aR,4S,7aR)-methyl 4-hydroxy-4-((2-methylthiazol-4-yl)ethynyl)octahydro-1H-indole-1-carboxylate]: the IC50 at human mGluR5a receptors was 470 nM. The solubility in data set [1] is > 300 µg/mL.
For `COC(=O)N1CC[C@@H]2[C@H]1CCC[C@@]2(N)C#Cc1cccc(C)c1` [Example 8, (3aR,4S,7aR)-methyl 4-amino-4-(m-tolylethynyl)octahydro-1H-indole-1-carboxylate], the IC50 on human mGluR5a receptors worked out at 330 nM. Besides, the solubility in data set [1] was > 300 µg/mL.
For the molecule `CCOC(=O)N1CC[C@@H]2[C@H]1CCC[C@@]2(N)C#Cc1cccc(C)c1` [Example 9, (3aR,4S,7aR)-ethyl 4-amino-4-(m-tolylethynyl)octahydro-1H-indole-1-carboxylate], the half-maximal inhibitory concentration (IC50) on human mGluR5a receptors was found to be 710 nM. Besides, in data set [1], the solubility is > 300 µg/mL.

As usually defined, the IC50 is the concentration at which inhibition is half-maximal. The term solubility denotes the concentration that dissolves in the medium under given conditions. Low readings indicate a poorly soluble substance, high ones a readily soluble substance.
